Results reported in US20230081426A1, “COMPOUNDS AND METHODS FOR KRAS MODULATION AND INDICATIONS THEREFOR” (Plexxikon Inc., priority 2020, published 2023).

How the values were obtained:
[1] = target: T1, G12D-mutant human KRAS (amino acid residues 1-188) (Homo sapiens, UniProt P01116, G12D); experiment: KRAS Binding Disruption Assay (AlphaScreen; biotinylated KRpep-2d analogue or RAF1-RBD), G12D; details: KRAS G12D; geometric mean; read-out: KRAS GMean IC50 (uM) MUTATION: G12D
T1 construct: G12D or G12C-mutant human KRAS (amino acid residues 1-188) with FLAG tag; made in house; host or cells: E. coli
Outline: (§1)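 Compounds are titrated against 5-20 nM mutant KRAS and 5-20 nM of either a biotinylated KRpep-2d analogue or RAF1-RBD, incubated 1 h at 25° C. Disruption is detected as reduced Alpha signal after 1 h with donor and acceptor beads at 10 μg/mL.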

[2] = target: T2, G12C-mutant human KRAS (amino acid residues 1-188) (Homo sapiens, UniProt P01116, G12C); experiment: KRAS Binding Disruption Assay (AlphaScreen; biotinylated KRpep-2d analogue or RAF1-RBD), G12C; details: geometric mean, read-out: KRAS GMean IC50 (uM) MUTATION: G12C
T2 construct: G12D or G12C-mutant human KRAS (amino acid residues 1-188) with FLAG tag; made in house; host or cells: E. coli
Outline: as §1

[3] = target: T3, G12V-mutant human KRAS (amino acid residues 1-188) (Homo sapiens, UniProt P01116, G12V); experiment: KRAS Binding Competition Assay (AlphaScreen; biotinylated KRpep-2d analogue), G12V; details: geometric mean, read-out: KRAS GMean IC50 (uM) MUTATION: G12V
T3 construct: G12V-mutant human KRAS (amino acid residues 1-188) with FLAG tag was purified from E. coli; made in house; host or cells: E. coli

Measured: IC50

CC1(NC(=O)N2[C@@H]3CC[C@H]2CN(c2nc(OCC45CCCN4CCC5)nc4cc(-c5cc(O)cc6ccccc56)ccc24)C3)CCNC1 (stereo partly drawn) [P-0124, (1R,5S)-3-(7-(3-hydroxynaphthalen-1-yl)-2-((tetrahydro-1H-pyrrolizin-7a(5H)-yl)methoxy)quinazolin-4-yl)-N-(3-methylpyrrolidin-3-yl)-3,8-diazabicyclo[3.2.1]octane-8-carboxamide]
0.0001 to 10 µM: all assays above

O=C(NC1CNC1)N1[C@@H]2CC[C@H]1CN(c1nc(OCC34CCCN3CCC4)nc3cc(-c4cc(O)cc5ccccc45)ccc13)C2 [P-0125, (1R,5S)-N-(azetidin-3-yl)-3-(7-(3-hydroxynaphthalen-1-yl)-2-((tetrahydro-1H-pyrrolizin-7a(5H)-yl)methoxy)quinazolin-4-yl)-3,8-diazabicyclo[3.2.1]octane-8-carboxamide]
0.0001 to 10 µM: all assays above

O=C(Nc1cn[nH]c1)N1[C@@H]2CC[C@H]1CN(c1nc(OCC34CCCN3CCC4)nc3cc(-c4cc(O)cc5ccccc45)ccc13)C2 [P-0126, (1R,5S)-3-(7-(3-hydroxynaphthalen-1-yl)-2-((tetrahydro-1H-pyrrolizin-7a(5H)-yl)methoxy)quinazolin-4-yl)-N-(1H-pyrazol-4-yl)-3,8-diazabicyclo[3.2.1]octane-8-carboxamide]
0.0001 to 10 µM: all assays above

O=C(NCC1CCNC1)N1[C@@H]2CC[C@H]1CN(c1nc(OCC34CCCN3CCC4)nc3cc(-c4cc(O)cc5ccccc45)ccc13)C2 (stereo partly drawn) [P-0127, (1R,5S)-3-(7-(3-hydroxynaphthalen-1-yl)-2-((tetrahydro-1H-pyrrolizin-7a(5H)-yl)methoxy)quinazolin-4-yl)-N-(pyrrolidin-3-ylmethyl)-3,8-diazabicyclo[3.2.1]octane-8-carboxamide]
0.0001 to 10 µM: all assays above

Cn1cc(NC(=O)N2[C@@H]3CC[C@H]2CN(c2nc(OCC45CCCN4CCC5)nc4cc(-c5cc(O)cc6ccccc56)ccc24)C3)cn1 [P-0128, (1R,5S)-3-(7-(3-hydroxynaphthalen-1-yl)-2-((tetrahydro-1H-pyrrolizin-7a(5H)-yl)methoxy)quinazolin-4-yl)-N-(1-methyl-1H-pyrazol-4-yl)-3,8-diazabicyclo[3.2.1]octane-8-carboxamide]
0.0001 to 10 µM: all assays above

O=C(NC1CCOC1)N1[C@@H]2CC[C@H]1CN(c1nc(OCC34CCCN3CCC4)nc3cc(-c4cc(O)cc5ccccc45)ccc13)C2 (stereo partly drawn) [P-0129, (1R,5S)-3-(7-(3-hydroxynaphthalen-1-yl)-2-((tetrahydro-1H-pyrrolizin-7a(5H)-yl)methoxy)quinazolin-4-yl)-N-(tetrahydrofuran-3-yl)-3,8-diazabicyclo[3.2.1]octane-8-carboxamide]
0.0001 to 10 µM: all assays above

O=C(N[C@H]1CC[C@@H](O)C1)N1[C@@H]2CC[C@H]1CN(c1nc(OCC34CCCN3CCC4)nc3cc(-c4cc(O)cc5ccccc45)ccc13)C2 [P-0130, (1R,5S)-N-((1S,3R)-3-hydroxycyclopentyl)-3-(7-(3-hydroxynaphthalen-1-yl)-2-((tetrahydro-1H-pyrrolizin-7a(5H)-yl)methoxy)quinazolin-4-yl)-3,8-diazabicyclo[3.2.1]octane-8-carboxamide]
0.0001 to 10 µM: all assays above

O=C(N[C@H]1CC[C@H](O)C1)N1[C@@H]2CC[C@H]1CN(c1nc(OCC34CCCN3CCC4)nc3cc(-c4cc(O)cc5ccccc45)ccc13)C2 [P-0131, (1R,5S)-N-((1S,3S)-3-hydroxycyclopentyl)-3-(7-(3-hydroxynaphthalen-1-yl)-2-((tetrahydro-1H-pyrrolizin-7a(5H)-yl)methoxy)quinazolin-4-yl)-3,8-diazabicyclo[3.2.1]octane-8-carboxamide]
0.0001 to 10 µM: all assays above

CN1CC[C@H](NC(=O)N2[C@@H]3CC[C@H]2CN(c2nc(OCC45CCCN4CCC5)nc4cc(-c5cc(O)cc6ccccc56)ccc24)C3)C1 [P-0132, (1R,5S)-3-(7-(3-hydroxynaphthalen-1-yl)-2-((tetrahydro-1H-pyrrolizin-7a(5H)-yl)methoxy)quinazolin-4-yl)-N-((S)-1-methylpyrrolidin-3-yl)-3,8-diazabicyclo[3.2.1]octane-8-carboxamide]
0.0001 to 10 µM: all assays above

CN1CC[C@@H](NC(=O)N2[C@@H]3CC[C@H]2CN(c2nc(OCC45CCCN4CCC5)nc4cc(-c5cc(O)cc6ccccc56)ccc24)C3)C1 [P-0133, (1R,5S)-3-(7-(3-hydroxynaphthalen-1-yl)-2-((tetrahydro-1H-pyrrolizin-7a(5H)-yl)methoxy)quinazolin-4-yl)-N-((R)-1-methylpyrrolidin-3-yl)-3,8-diazabicyclo[3.2.1]octane-8-carboxamide]
0.0001 to 10 µM: all assays above

O=C(NC1CCNCC1)N1[C@@H]2CC[C@H]1CN(c1nc(OCC34CCCN3CCC4)nc3cc(-c4cc(O)cc5ccccc45)ccc13)C2 [P-0134, (1R,5S)-3-(7-(3-hydroxynaphthalen-1-yl)-2-((tetrahydro-1H-pyrrolizin-7a(5H)-yl)methoxy)quinazolin-4-yl)-N-(piperidin-4-yl)-3,8-diazabicyclo[3.2.1]octane-8-carboxamide]
0.0001 to 10 µM: all assays above

O=C1NCCC1NC(=O)N1[C@@H]2CC[C@H]1CN(c1nc(OCC34CCCN3CCC4)nc3cc(-c4cc(O)cc5ccccc45)ccc13)C2 (stereo partly drawn) [P-0135, (1R,5S)-3-(7-(3-hydroxynaphthalen-1-yl)-2-((tetrahydro-1H-pyrrolizin-7a(5H)-yl)methoxy)quinazolin-4-yl)-N-(2-oxopyrrolidin-3-yl)-3,8-diazabicyclo[3.2.1]octane-8-carboxamide]
0.0001 to 10 µM: all assays above

Oc1cc(-c2ccc3c(N4C[C@H]5CC[C@@H](C4)N5)nc(OCC45CCCN4CCC5)nc3c2F)c2c(Cl)cccc2c1 [P-0136, 4-(4-((1R,5S)-3,8-diazabicyclo[3.2.1]octan-3-yl)-8-fluoro-2-((tetrahydro-1H-pyrrolizin-7a(5H)-yl)methoxy)quinazolin-7-yl)-5-chloronaphthalen-2-ol]
0.0001 to 10 µM: all assays above

Oc1cc(-c2c(F)cc3c(N4C[C@H]5CC[C@@H](C4)N5)nc(OCC45CCCN4CCC5)nc3c2F)c2c(Cl)cccc2c1 [P-0137, 4-(4-((1R,5S)-3,8-diazabicyclo[3.2.1]octan-3-yl)-6,8-difluoro-2-((tetrahydro-1H-pyrrolizin-7a(5H)-yl)methoxy)quinazolin-7-yl)-5-chloronaphthalen-2-ol]
0.0001 to 10 µM: all assays above

CN1CC[C@@H](NC(=O)N2[C@@H]3CC[C@H]2CN(c2nc(OCC45CCCN4CCC5)nc4c(F)c(-c5cc(O)cc6ccccc56)ccc24)C3)C1 [P-0186, (1R,5S)-3-(8-fluoro-7-(3-hydroxynaphthalen-1-yl)-2-((tetrahydro-1H-pyrrolizin-7a(5H)-yl)methoxy)quinazolin-4-yl)-N-((R)-1-methylpyrrolidin-3-yl)-3,8-diazabicyclo[3.2.1]octane-8-carboxamide]
0.0001 to 10 µM: all assays above

CN1CCC[C@H]1COc1nc(N2CC3COCC(C2)N3)c2ccc(-c3cc(O)cc4ccccc34)c(F)c2n1 [P-0249, 4-(4-(3-oxa-7,9-diazabicyclo[3.3.1]nonan-7-yl)-8-fluoro-2-(((S)-1-methylpyrrolidin-2-yl)methoxy)quinazolin-7-yl)naphthalen-2-ol]
0.0001 to 10 µM: all assays above

CN1CCC[C@H]1COc1nc(N2C[C@H]3CC[C@@H](C2)N3C(=O)CC2SC(=O)NC2=O)c2ccc(-c3cc(O)cc4ccccc34)c(F)c2n1 (stereo partly drawn) [P-0279, 5-(2-((1R,5S)-3-(8-fluoro-7-(3-hydroxynaphthalen-1-yl)-2-(((S)-1-methylpyrrolidin-2-yl)methoxy)quinazolin-4-yl)-3,8-diazabicyclo[3.2.1]octan-8-yl)-2-oxoethyl)thiazolidine-2,4-dione]
0.0001 to 10 µM: all assays above

O=C1NC(=O)C(CC(=O)N2[C@@H]3CC[C@H]2CN(c2nc(OCC45CCCN4CCC5)nc4c(F)c(-c5cc(O)cc6ccccc56)ccc24)C3)S1 (stereo partly drawn) [P-0299, 5-(2-((1R,5S)-3-(8-fluoro-7-(3-hydroxynaphthalen-1-yl)-2-((tetrahydro-1H-pyrrolizin-7a(5H)-yl)methoxy)quinazolin-4-yl)-3,8-diazabicyclo[3.2.1]octan-8-yl)-2-oxoethyl)thiazolidine-2,4-dione]
0.0001 to 10 µM: all assays above

CN1CCC[C@H]1COc1nc(N2CC3CCC2CN3C(=O)CC2SC(=O)NC2=O)c2ccc(-c3cc(O)cc4ccccc34)c(F)c2n1 (stereo partly drawn) [P-0328, 5-(2-(5-(8-fluoro-7-(3-hydroxynaphthalen-1-yl)-2-(((S)-1-methylpyrrolidin-2-yl)methoxy)quinazolin-4-yl)-2,5-diazabicyclo[2.2.2]octan-2-yl)-2-oxoethyl)thiazolidine-2,4-dione]
0.0001 to 10 µM: all assays above
